Results published in article PMC10042540, “Targeting oncogenic KRasG13C with nucleotide-based covalent inhibitors” (eLife, 2023).

Tests used:
pErkT202/Y204 = experiment: Electroporation into HeLa cells, western blot quantification; format: cell-based, human; conditions: for pErk mean fold change: mean of cell lysates
Method: (§1) HeLa cells were obtained from the American Type Culture Collection (ATCC) and were cultured in DMEM medium (Gibco) supplemented with 10% fetal bovine serum (FBS) (PAN-Biotech) and 1% penicillin/streptomycin (Gibco). Cells were cultured in a humidified incubator at 37 °C in the presence of 5% CO2. The identity of the cells was validated by STR profiling and the cells were tested negative for mycoplasma contamination.
(§2) Electroporation of full-length KRas constructs (KRasWT, KRasG13C, KRasG13C-edaGDP, KRasG13C:acetyledaGDP and KRasG13C-edaGppCp) was performed based on the protocol described by [Alex et al., 2019] using the Neon Transfection System Kit (Thermo Fisher). For electroporation, 3 million cells per experiment were harvested by trypsinization, washed with PBS, and resuspended in 85 µL of the electroporation buffer R (Thermo Fisher). Increasing amounts of recombinant protein samples for each construct (0, 50, 100, 200 and 300 µg) were diluted 1:1 in buffer R followed by the addition of 30 µL of this protein master mix to the cell suspension. This cellular slurry was loaded into a […] Neon Pipette Tip (Thermo Fisher) and electroporated with 2x35 ms pulses at 1000 V. After electroporation, the cells were washed twice with PBS (15 mL) to remove non-internalized extracellular protein and the cell pellet was resuspended in 2 mL complete growth media. Cells were transferred into six-well tissue culture plates (Sarstedt) and incubated for 24 hr at 37 °C and 5% CO2 in a humidified incubator for recovery before being processed for western blotting analysis.
(§3) After recovery of the electroporation, cells were washed twice with ice-cold PBS and lysed in 100 µL of phosphatase and protease inhibitor containing RIPA buffer (Cell Signaling Technology). Cells were incubated on ice for 30 min and then harvested by scraping followed by centrifugation at 14,000 rpm for 10 min at 4 °C. Protein concentrations were determined using the Pierce BCA protein assay (Thermo) following the manufacturer’s recommended procedure. Equal amounts of protein (10 µg) were analyzed by SDS-PAGE and transferred to Immobilon-FL PVDF membranes (Merck Millipore) using Pierce 1-step transfer buffer (Thermo) and the Pierce Power Blotter (Thermo). Membranes were washed with ddH2O for 5 min, blocked with OdysseyBlocking Buffer TBS (Li-Cor) for 1 hr at room temperature and then incubated with primary antibodies diluted in OdysseyBlocking Buffer TBS overnight at 4 °C with gentle agitation. KRas (Sigma Aldrich, SAB1404011-100UG), pcRafS338 (CST, 9427), tAkt1 (CST, 2938), pAktS473 (CST, 4060), tErk (CST, 4696), pErkT202/Y204 (CST, 4370), pS6S235/236 (CST, 4858), and β-actin (CST, 4970/Sigma-Aldrich, A5441) antibodies were used to detect the individual proteins. After primary antibody incubation, membranes were washed three times with TBS-T (50 mM Tris, 150 mM NaCl, 0.05% Tween 20, pH 7.4) for 5 min before being incubated with secondary antibodies (anti-mouse IgG (H+L) (DyLight 680 Conjugate) (CST, 5470) / anti-rabbit IgG (H+L) (DyLight 800 4 X PEG Conjugate) (CST, 5151)) diluted in OdysseyBlocking Buffer TBS for 1 hr at room temperature with gentle agitation. After secondary antibody incubation, the membranes were washed three times for 5 min with TBS-T and then scanned using an OdysseyCLx imaging system (Li-Cor). Quantification of protein levels from western blots was performed using Empiria Studio (Li-Cor) (Figure 3B, C, Figure 3—figure supplements 6–9).

pcRafS338 = experiment: as above; format: cell-based, human; conditions: for pcRaf mean fold change: mean of cell lysates
Method: as §1, §2, §3

tAkt1 = experiment: as above; format: cell-based, human; conditions: for tAkt mean fold change: mean of cell lysates
Method: as §1, §2, §3

pS6S235/236 = experiment: as above; format: cell-based, human; conditions: for pS6 mean fold change: mean of cell lysates
Method: as §1, §2, §3

tErk = experiment: as above; format: cell-based, human; conditions: for tErk mean fold change: mean of cell lysates
Method: as §1, §2, §3

pAktS473 = experiment: as above; format: cell-based, human; conditions: for pAkt mean fold change: mean of cell lysates
Method: as §1, §2, §3

[1] = test system: Ras pathway (pcRaf, pAkt, pErk, pS6); experiment: Electroporation into HeLa cells, western blot of downstream signalling; format: cell-based, human; conditions: electroporation of 50-300 µg protein
Method: as §1, §2
After recovery of the electroporation, cells were washed twice with ice-cold PBS and lysed in 100 µL of phosphatase and protease inhibitor containing RIPA buffer (Cell Signaling Technology). Cells were incubated on ice for 30 min and then harvested by scraping followed by centrifugation at 14,000 rpm for 10 min at 4 °C. Protein concentrations were determined using the Pierce BCA protein assay (Thermo) following the manufacturer’s recommended procedure. Equal amounts of protein (10 µg) were analyzed by SDS-PAGE and transferred to Immobilon-FL PVDF membranes (Merck Millipore) using Pierce 1-step transfer buffer (Thermo) and the Pierce Power Blotter (Thermo). Membranes were washed with ddH2O for 5 min, blocked with OdysseyBlocking Buffer TBS (Li-Cor) for 1 hr at room temperature and then incubated with primary antibodies diluted in OdysseyBlocking Buffer TBS overnight at 4 °C with gentle agitation. […] Quantification of protein levels from western blots was performed using Empiria Studio (Li-Cor) (Figure 3B, C, Figure 3—figure supplements 6–9).

SOS = experiment: Guanine nucleotide-exchange factor assay (mantdGDP fluorescence); format: biochemical; conditions: 5 µM KRas1-169, 10 µM mantdGDP, 0.25 or 0.5 µM SOS
Method: SOS-catalysed nucleotide exchange was monitored at 25 °C in a FluoroMax-3 spectrofluorometer (excitation at 360 nm, emission at 440 nm) in 20 mM HEPES (pH 7.5), 100 mM NaCl, 2 mM MgCl2, and 1 mM TCEP. 5 µM KRas1-169 was mixed with 10 µM mantdGDP and subsequently with different concentrations of SOS (0.25 µM and 0.5 µM) (Figure 3A; Figure 3—figure supplement 1).

Substance: KRasG13C-edaGppCp: KRasG13C covalently modified with edaGppCp
- pErk fold change (pErkT202/Y204; 50 µg, Cell lysate 1): 4.72
- pErk fold change (pErkT202/Y204; 50 µg, Cell lysate 2): 5.16
- pErk mean fold change (pErkT202/Y204; 50 µg): 4.94
- pErk fold change (pErkT202/Y204; 100 µg, Cell lysate 1): 7.88
- pErk fold change (pErkT202/Y204; 100 µg, Cell lysate 2): 4.30
- pErk mean fold change (pErkT202/Y204; 100 µg): 6.09
- pErk fold change (pErkT202/Y204; 200 µg, Cell lysate 1): 7.25
- pErk fold change (pErkT202/Y204; 200 µg, Cell lysate 2): 5.27
- pErk mean fold change (pErkT202/Y204; 200 µg): 6.26
- pErk fold change (pErkT202/Y204; 300 µg, Cell lysate 1): 7.62
- pErk fold change (pErkT202/Y204; 300 µg, Cell lysate 2): 5.84
- pErk mean fold change (pErkT202/Y204; 300 µg): 6.73
- pcRaf fold change (pcRafS338; 50 µg, Cell lysate 1): 2.67
- pcRaf fold change (pcRafS338; 50 µg, Cell lysate 2): 1.69
- pcRaf mean fold change (pcRafS338; 50 µg): 2.18
- pcRaf fold change (pcRafS338; 100 µg, Cell lysate 1): 2.60
- pcRaf fold change (pcRafS338; 100 µg, Cell lysate 2): 2.10
- pcRaf mean fold change (pcRafS338; 100 µg): 2.35
- pcRaf fold change (pcRafS338; 200 µg, Cell lysate 1): 2.93
- pcRaf fold change (pcRafS338; 200 µg, Cell lysate 2): 3.37
- pcRaf mean fold change (pcRafS338; 200 µg): 3.15
- pcRaf fold change (pcRafS338; 300 µg, Cell lysate 1): 3.66
- pcRaf fold change (pcRafS338; 300 µg, Cell lysate 2): 3.19
- pcRaf mean fold change (pcRafS338; 300 µg): 3.43
- tAkt fold change (tAkt1; 50 µg, Cell lysate 1): 1.35
- tAkt fold change (tAkt1; 50 µg, Cell lysate 2): 1.53
- tAkt mean fold change (tAkt1; 50 µg): 1.44
- tAkt fold change (tAkt1; 100 µg, Cell lysate 1): 1.30
- tAkt fold change (tAkt1; 100 µg, Cell lysate 2): 1.69
- tAkt mean fold change (tAkt1; 100 µg): 1.50
- tAkt fold change (tAkt1; 200 µg, Cell lysate 1): 1.09
- tAkt fold change (tAkt1; 200 µg, Cell lysate 2): 1.67
- tAkt mean fold change (tAkt1; 200 µg): 1.38
- tAkt fold change (tAkt1; 300 µg, Cell lysate 1): 0.94
- tAkt fold change (tAkt1; 300 µg, Cell lysate 2): 1.47
- tAkt mean fold change (tAkt1; 300 µg): 1.20
- pS6 fold change (pS6S235/236; 50 µg, Cell lysate 1): 4.20
- pS6 fold change (pS6S235/236; 50 µg, Cell lysate 2): 2.51
- pS6 mean fold change (pS6S235/236; 50 µg): 3.36
- pS6 fold change (pS6S235/236; 100 µg, Cell lysate 1): 2.82
- pS6 fold change (pS6S235/236; 100 µg, Cell lysate 2): 2.81
- pS6 mean fold change (pS6S235/236; 100 µg): 2.82
- pS6 fold change (pS6S235/236; 200 µg, Cell lysate 1): 3.15
- pS6 fold change (pS6S235/236; 200 µg, Cell lysate 2): 3.28
- pS6 mean fold change (pS6S235/236; 200 µg): 3.22
- pS6 fold change (pS6S235/236; 300 µg, Cell lysate 1): 3.41
- pS6 fold change (pS6S235/236; 300 µg, Cell lysate 2): 3.61
- pS6 mean fold change (pS6S235/236; 300 µg): 3.51
- tErk fold change (tErk; 50 µg, Cell lysate 1): 1.12
- tErk fold change (tErk; 50 µg, Cell lysate 2): 1.11
- tErk mean fold change (tErk; 50 µg): 1.12
- tErk fold change (tErk; 100 µg, Cell lysate 1): 1.29
- tErk fold change (tErk; 100 µg, Cell lysate 2): 1.14
- tErk mean fold change (tErk; 100 µg): 1.21
- tErk fold change (tErk; 200 µg, Cell lysate 1): 1.21
- tErk fold change (tErk; 200 µg, Cell lysate 2): 1.17
- tErk mean fold change (tErk; 200 µg): 1.19
- tErk fold change (tErk; 300 µg, Cell lysate 1): 1.69
- tErk fold change (tErk; 300 µg, Cell lysate 2): 1.50
- tErk mean fold change (tErk; 300 µg): 1.60
- pAkt fold change (pAktS473; 50 µg, Cell lysate 1): 2.11
- pAkt fold change (pAktS473; 50 µg, Cell lysate 2): 3.13
- pAkt mean fold change (pAktS473; 50 µg): 2.62
- pAkt fold change (pAktS473; 100 µg, Cell lysate 1): 4.88
- pAkt fold change (pAktS473; 100 µg, Cell lysate 2): 6.30
- pAkt mean fold change (pAktS473; 100 µg): 5.59
- pAkt fold change (pAktS473; 200 µg, Cell lysate 1): 6.55
- pAkt fold change (pAktS473; 200 µg, Cell lysate 2): 7.78
- pAkt mean fold change (pAktS473; 200 µg): 7.17
- pAkt fold change (pAktS473; 300 µg, Cell lysate 1): 6.53
- pAkt fold change (pAktS473; 300 µg, Cell lysate 2): 5.20
- pAkt mean fold change (pAktS473; 300 µg): 5.87
- downstream signalling (pcRaf, pAkt, pErk, pS6) [1]: activation of the Ras pathway comparable to KRasG13C was observed
- SOS-catalysed nucleotide exchange (SOS): no SOS-catalysed nucleotide exchange was observed
